# How the values were obtained:
# GBM6 = assay: In vitro invasion, GBM6 cells; format: cell-based, human
# Method: (§1) Boyden chamber invasion assays were carried out essentially as described (Shida et al. Cancer Res 68:6569-6577, 2008).
# ERK1/2 = assay: Western blotting of pERK1/2, GBM6 cells; format: cell-based, human
# Method: (§2) Cells were scraped in buffer containing 20 mM Tris-HCl, pH 7.5, 50 mM NaCl, 50 mM NaF, 30 mM Na4P2O7, 20 mM 2-glycerophosphate, 1 mM Na3VO4, 5 mM EDTA, 2 mM EGTA, 0.5% SDS and protease inhibitor cocktail (1:200 dilution) and probe-sonicated. Equal amounts of protein determined with bicinchoninic acid (Pierce, Rockford, Ill.), were resolved by SDS-PAGE and transferred to nitrocellulose membranes. Blots were blocked with 5% non-fat dry milk in Tris-buffered saline containing 0.1% […] (TBST) for 1 h at room temperature, and then incubated with primary antibodies (1:3,000 in 1% BSA) overnight, followed by the appropriate HRP-conjugated secondary antibodies (1:40,000 in 1% BSA). Immunocomplexes were visualized by enhanced chemiluminescence (Pierce).
# [1] = test system: human leukemic cell lines; settings: U.S. Ser. No. 12/387,228; cited from earlier work
# U373 cells [2] = assay: Cell proliferation (WST-1), U373 cells; format: cell-based, human
# Method: U373-MG and LN229 human glioblastoma cells (ATTC, Manassas, Va.) were cultured in DMEM supplemented with 5% FCS. Primary human non-established glioblastoma GBM6 cells were kindly provided by Dr. C. David James and were passaged as tumors in nude mice and subcultured for 1 week following isolation from tumors in media containing 2% FCS to prevent growth of contaminating rodent fibroblasts and then cultured in 5% FCS as described (Yacoub et al., Mol Cancer Ther 7:314-329, 2008). LN229 cells were transfected with H2B-EGFP plasmid and stable colonies were isolated following selection with 1 mg/ml of G418. LN229-H2B-EGFP cells were passaged as tumors as described above.
# (§3) Cells were plated at 10,000 cells/well in 48-well plates and allowed to attach for 24 h. Cell proliferation was measured at the indicated times with WST-1 and absorbance was measured in a plate reader at 450 nm with background subtraction at 630 nm. Cell death was detected by trypan blue exclusion assays in which the percent of blue dye incorporating cells were determined using a light microscope and a hemacytometer as described (Yacoub et al. Mol Cancer Ther 7:314-329, 2008). Apoptotic cell death was measured by staining cell nuclei with the Hoechst dye bisbenzimide and apoptotic cells were identified by condensed, fragmented nuclear regions as described previously (Sankala et al. Cancer Res 67:10466-10474, 2007). A minimum of 300 cells was scored.
# [3] = test system: blasts obtained from patients with AML; settings: U.S. Ser. No. 12/387,228; cited from earlier work
# U373 cells [4] = assay: PMA-stimulated F-actin reorganization and lamellipodia formation (phalloidin staining, confocal); format: cell-based, human
# Method: Cells were grown on 3-aminopropyl-triethoxysilane-treated 15 mm glass cover slips in 24 well plates. Following treatments, cells were washed with PBS, fixed with 3% paraformaldehyde for 10 min at room temperature, and blocked in TBST buffer containing 1% BSA. After washing, cells were incubated in the same buffer containing Alexa-conjugated phalloidin for 30 min, followed by 15 min incubation in 10 μg/ml of Hoechst 33342. For TUNEL assays, fixed cells were permeabilized with 0.5% TX-100 for 30 min, washed and incubated in TdT buffer supplemented with 250 μM CoCl2, 20 units TdT (NEB, Ipswich, Mass.) and 1 nM fluorescein-12-dUTP (Roche) for 1 h at 37° C. Coverslips were washed with TBST, rinsed in water, air dried and mounted on glass slides with Cytoseal 60 polymer (Richard-Allan Scientific, Kalamazoo, Mich.). Images were collected on an LSM 510 laser confocal microscope (Zeiss, Thornwood, N.Y.) with a 100× oil immersion objective.
# JNK = JNK pathway and p38 MAPK activation, LN229 cells; format: cell-based, human
# Method: as §2
# Akt [5] = target: Akt (Homo sapiens, UniProt P31749); settings: Paugh et al. Blood 2008; cited from earlier work
# Chain of Akt (Homo sapiens, UniProt P31749) (P31749 whole entry): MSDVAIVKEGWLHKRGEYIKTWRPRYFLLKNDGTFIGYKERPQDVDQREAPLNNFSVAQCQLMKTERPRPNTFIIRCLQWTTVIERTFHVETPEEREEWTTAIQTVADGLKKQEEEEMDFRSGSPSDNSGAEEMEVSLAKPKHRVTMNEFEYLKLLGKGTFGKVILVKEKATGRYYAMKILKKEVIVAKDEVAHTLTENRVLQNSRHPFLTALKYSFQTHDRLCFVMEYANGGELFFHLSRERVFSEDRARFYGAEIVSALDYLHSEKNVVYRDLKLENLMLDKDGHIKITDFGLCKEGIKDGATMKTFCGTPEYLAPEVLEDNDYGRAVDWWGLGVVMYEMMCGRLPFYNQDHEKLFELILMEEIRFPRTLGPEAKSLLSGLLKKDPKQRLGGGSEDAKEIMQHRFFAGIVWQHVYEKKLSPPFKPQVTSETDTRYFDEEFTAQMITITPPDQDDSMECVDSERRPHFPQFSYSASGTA
# U373 cells [6] = assay: Boyden chamber chemotaxis, U373 cells; format: cell-based, human
# Method: as §1
# U87 cells = assay: Proliferation of U87 glioblastoma cells; format: cell-based, human
# Method: as §3
# [7] = test system: intracranial LN229-H2B-EGFP tumors; assay: Intracranial LN229 xenograft tumors in nu/nu mice; format: in vivo
# Method: Adult female NCI nu/nu mice were anesthetized and LN229-H2B-EGFP cells (2.5×10^4 in 1 μl PBS) were stereotactically implanted in the putamen region (1 mm anterior and 2.5 mm lateral to the Bregma at the depth of 3.5 mm at a rate of 0.1 μl/min). Mice were monitored for recovery until complete wakening. 20 days after implantation, mice were injected i.p. with SK1-I (20 mg/kg in PBS) every other day. Mice were observed daily following tumor implantation and were euthanized on reaching a moribund state.
# Experiments were repeated at least three times with consistent results. For each experiment, data from triplicate samples were expressed as means±S.D. Statistics were performed by single factor ANOVA, and p<0.05 was considered significant. The Kaplan-Meier estimator was used to generate the survival curves and to estimate the median survival values. Differences between survival curves were compared using a log-rank test.
# Akt [8] = assay: Western blotting of Akt phosphorylation, U373 cells; format: cell-based, human
# Method: as §2
# LN229 cells [9] = assay: Boyden chamber chemotaxis, LN229 cells; format: cell-based, human
# Method: as §1
# EGFR, Gab1 = assay: EGF-induced tyrosine phosphorylation of EGFR and Gab1; format: cell-based
# Method: as §2
# LN229 cells [10] = assay: In vitro invasion into Matrigel, LN229 cells; format: cell-based, human
# Method: as §1
structure (smiles),measurement,setting,value
"CCCCCc1ccc(/C=C/[C@H](O)[C@@H](CO)NC)cc1 [SK1-I, (2R,3S,4E)-N-methyl-5-(4′-pentylphenyl)-2-aminopent-4-ene-1,3-diol]",serum- and EGF-induced invasion,GBM6,suppressed
same,pERK1/2 levels,ERK1/2,without affecting
same,apoptosis,[1],markedly induced apoptosis
same,cell growth,"U373 cells [2]; U373, 10 μM, absence of serum",strongly inhibited growth
same,cell numbers,"U373 cells [2]; U373, 10 μM, presence of serum, within 2-4 days",severe reductions in cell numbers
same,concentration at which a significant growth inhibitory effect was observed,U373 cells [2]; U373 cells,3 µM
same,apoptosis,[3],markedly induced apoptosis
same,PMA-stimulated F-actin reorganization at the leading edge and formation of lamellipodia,U373 cells [4],dramatically reduced
same,activation of JNK,JNK; LN229,delayed activation of JNK
same,phosphorylation of c-Jun (Ser63/73) and ATF-2 (Thr71),"JNK; LN229, after addition of SK1-I",enhanced phosphorylation
same,p38 MAPK,"JNK; LN229, data not shown",without affecting
same,Akt activity in an in vitro kinase assay,Akt [5],did not inhibit Akt activity
same,chemotaxis toward serum or EGF,U373 cells [6],reduced
same,proliferation,U87 cells,suppress proliferation
same,symptoms of tumor burden,"[7]; 20 mg/kg i.p. every other day from day 20, when vehicle mice were moribund (day 43-49)",None of the SK1-I treated mice showed any symptoms
same,tumors on T2W MRI,[7]; day 48,no tumors were evident
same,tumor on gadolinium enhanced MRI,"[7]; day 48, site of injection",small tumor
same,Kaplan-Meier survival,"[7]; i.p. administration, vs vehicle control",significant survival benefit
same,invading GFP-labeled LN229 cells in intracranial tumor sections,[7]; vs vehicle treated animals,significantly fewer invading cells
same,basal Akt phosphorylation at Thr308 and Ser473,Akt [8]; U373,reduced
same,time to significant inhibitory effect on Akt phosphorylation,Akt [8]; U373,≤ 20 min
same,duration of inhibitory effect on Akt phosphorylation,"Akt [8]; U373, data not shown",at least 24 hours
same,total Akt levels,Akt [8]; after treatment with SK1-I,no significant reductions
same,chemotaxis toward lysophosphatidic acid (LPA),LN229 cells [9],drastically inhibited
same,chemotaxis toward serum and EGF,LN229 cells [9],significantly inhibited
same,EGF-induced tyrosine phosphorylation of EGFR or of Gab1,"EGFR, Gab1",did not affect
same,"LPA-, serum- and EGF-stimulated in vitro invasion of Matrigel",LN229 cells [10],greatly attenuated

# Reference: patent US10945971B2, “Sphingosine kinase type 1 inhibitors and uses thereof” (Enzo Therapeutics, Inc., priority 2008, dated 2021)
